Results on 10 molecules are retold here after patent US20230331803A1, “CO-AGONISTS OF THE GLP-1 AND AMYLIN RECEPTORS” (priority 2020, published 2023).

Like-named read-outs stand apart in the source and are kept apart here. Starred links: 1 amine or outer side, 2 acyl side, 3 side chain; linkers in the order of their positions; H or OH if unused. Non-standard residues stand in square brackets, D forms with d. Groups on a side chain read outwards from the residue. *: point of attachment. C20 diacid = O=C(O)CCCCCCCCCCCCCCCCCCC(=O)*; C18 diacid = O=C(O)CCCCCCCCCCCCCCCCC(=O)*; γGlu = O=C(O)[C@H](CCC(=O)[*:2])N[*:1]; εLys = N[C@@H](CCCCN[*:1])C(=O)[*:2]; Trx = NC[C@H]1CC[C@H](C(=O)O)CC1; AEEA = NCCOCCOCC(=O)O; Aib = CC(C)(N)C(=O)O

Data set [1] concerns the target T1, human amylin receptor (hAmyR3) (Homo sapiens, UniProt O60896+P30988).
T1 construct: host or cells: BHK cells (Hollex-1 line: human calcitonin receptor (a) + CRE-Luc), further transfected with human RAMP3
As to the kind of experiment: Human amylin receptor in vitro potency assay (CRE-luciferase reporter, BHK cells).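 For all read-outs here: BHK cells expressing human calcitonin receptor plus RAMP3 (amylin-3 receptor) with a CRE-luciferase reporter, agonist activity read as luminescence from cAMP-driven transcription, 7-point serial dilutions.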 It is filed as cell-based. The settings on record: for EC50: Table 4a, BHK hAmyR3/CRE-Luc cells, 3 hours, read-out: Human AmyR3 potency [EC50 (pM)]; for Ability to agonise the amylin receptor, in words: Tables 4a-4c. For orientation: Reporter assays use an easily measured gene product as a stand-in for the process of interest.

For another data set, the target named is T2, human GLP-1 receptor (Homo sapiens, UniProt P43220).
T2 construct: expressed in transfected cells; host or cells: BHK (Baby Hamster Kidney) cells, clone BHK 467-12A KZ-10, stably transfected, with CRE-luciferase reporter
T2 sequence (P43220 24-463): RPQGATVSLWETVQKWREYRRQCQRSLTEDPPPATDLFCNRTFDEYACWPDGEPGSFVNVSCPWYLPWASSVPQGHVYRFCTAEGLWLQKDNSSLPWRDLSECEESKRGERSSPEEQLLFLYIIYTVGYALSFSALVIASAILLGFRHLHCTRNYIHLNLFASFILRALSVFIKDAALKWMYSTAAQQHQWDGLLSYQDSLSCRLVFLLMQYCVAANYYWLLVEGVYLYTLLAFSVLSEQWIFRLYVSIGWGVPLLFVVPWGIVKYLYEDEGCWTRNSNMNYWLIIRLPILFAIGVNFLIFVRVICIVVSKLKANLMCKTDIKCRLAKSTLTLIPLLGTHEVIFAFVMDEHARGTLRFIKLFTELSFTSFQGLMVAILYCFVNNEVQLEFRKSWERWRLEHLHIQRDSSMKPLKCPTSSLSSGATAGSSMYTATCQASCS
Kind of data set: Human GLP-1 receptor in vitro potency assay (CRE-luciferase reporter, BHK cells). It is filed as cell-based. The note with it: for EC50: Table 4a, BHK cells expressing human GLP-1R, CRE-Luc, 3 hours, read-out: Human GLP-1R potency [EC50 (pM)]; for Ability to agonise the GLP-1 receptor, in words: Tables 4a-4c.

Data set [2] can be described thus: Pharmacokinetic studies in Beagle dogs after oral administration of SNAC-based tablets. It is filed as in vivo. The note with it: dog, in vivo, po; for Tmax / half-life / T½: male, Beagle; for half-life: T½ (hr). The gist of the method: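 Fasted male Beagle dogs received immediate-release oral tablets containing 3–4 mg test substance with 100–300 mg SNAC, optionally after ~3 nmol/kg s.c. SEQ ID NO: 237 10 min before. EDTA plasma sampled up to 240 h; LCMS concentrations analysed non-compartmentally.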

In a further data set the test system is Sprague Dawley (SD) rats. Kind of data set: Acute food intake in ad libitum fed rats after a single subcutaneous administration.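 For all read-outs here: food intake monitored in the HM2 system, three rats per cage kept on a reversed light cycle, with food and water freely available after the subcutaneous dose.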 It is filed as in vivo, rat. The settings on record: for Food intake relative to vehicle (%) 0-24 hr, 10 nmol/kg / Food intake relative to vehicle (%) 24-48 hr, 10 nmol/kg: rat, single administration.
The conditions of data set [3]: endogenous hormone; cited from earlier work.
The conditions of data set [4]: measured in humans (Meier et al., Diabetes, 2004); cited from earlier work.
Data set [5] deals with T3, human amylin receptor (hAmyR3) (Homo sapiens, UniProt O60896+P30988).
T3 construct: host or cells: BHK cells (Hollex-1 line: human calcitonin receptor (a) + CRE-Luc), further transfected with human RAMP3
T3 sequence (O60896 whole entry, looked up): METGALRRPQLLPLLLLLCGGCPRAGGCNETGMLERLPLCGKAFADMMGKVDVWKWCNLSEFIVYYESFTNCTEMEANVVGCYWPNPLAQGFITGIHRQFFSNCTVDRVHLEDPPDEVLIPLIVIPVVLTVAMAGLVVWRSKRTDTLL
T3 sequence (P30988 whole entry, looked up): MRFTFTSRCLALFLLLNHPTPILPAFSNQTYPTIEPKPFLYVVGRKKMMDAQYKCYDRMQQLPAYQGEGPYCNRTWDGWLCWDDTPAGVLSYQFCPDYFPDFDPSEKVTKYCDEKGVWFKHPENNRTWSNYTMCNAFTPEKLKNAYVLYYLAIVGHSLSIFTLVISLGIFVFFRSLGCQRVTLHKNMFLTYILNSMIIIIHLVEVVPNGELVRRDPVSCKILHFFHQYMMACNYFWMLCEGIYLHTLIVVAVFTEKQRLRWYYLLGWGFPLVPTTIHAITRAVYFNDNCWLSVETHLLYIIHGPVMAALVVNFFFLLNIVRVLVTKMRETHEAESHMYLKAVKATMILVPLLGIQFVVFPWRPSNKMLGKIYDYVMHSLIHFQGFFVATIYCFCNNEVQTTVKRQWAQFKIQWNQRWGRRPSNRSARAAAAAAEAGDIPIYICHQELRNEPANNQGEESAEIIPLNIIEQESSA
Kind of data set: Human amylin receptor in vitro potency assay (CRE-luciferase reporter, BHK cells).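 Note: BHK cells expressing human calcitonin receptor plus RAMP3 (amylin-3 receptor) with a CRE-luciferase reporter, agonist activity read as luminescence from cAMP-driven transcription, 7-point serial dilutions.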 It is filed as cell-based. The note with it: Tables 4a-4c.

A word on the EC50: it is the midpoint of the concentration-response curve. One may read the Tmax as the time from dosing to the highest level. The half-life is the time needed for the level to fall by half in the phase considered. “H-H[Aib]EGTFTSDVSRYLEEQAAREFIEWLVRGRK([AEEA-AEEA-γGlu-Trx-C20 diacid])GGGGEASELSTAALGRLSAELHELATLPRTETGSGSP-NH2 [Compound 0511]”: in data set [1], the EC50 worked out at 8.4 pM. Moreover, the EC50 at human GLP-1 receptor amounted to 8.8 pM. In data set [2], the “AUC/D” value worked out at 3.80 kg·h/L, the “Cmax/D” value is 0.14 kg/L and the half-life is 1500 min. In addition, the Tmax in data set [2] (Tmax (hr)) amounted to 2 h. In addition, in the data set with Sprague Dawley (SD) rats (Table 6a), the “Food intake relative to vehicle (%) 0-24 hr, 10 nmol/kg” value is given as 61% and the “Food intake relative to vehicle (%) 24-48 hr, 10 nmol/kg” value is on record as 75%.
Regarding “H-H[Aib]EGTFTSDVSSYLEEQAAREFIAWLVRGRK([AEEA-AEEA-γGlu-C18 diacid])GGGGEASELSTAALGRLSAELHELATLPRTETGSGSP-NH2 [Compound 0111]”, in data set [1], the EC50 stood at 11.5 pM and the “Ability to agonise the amylin receptor, in words” value was “retained full potency on both receptors”. In addition, on human GLP-1 receptor, the EC50 was 3 pM and the “Ability to agonise the GLP-1 receptor, in words” value is reported as “retained full potency on both receptors”. Further, in data set [2], the “Tmax” value turned out to be 2.0 h, the “T½” value worked out at 42 h and the half-life is 2640 min. In addition, the Tmax in data set [2] (Tmax (hr)) was 1.5 h. In the data set on Sprague Dawley (SD) rats (Table 6a), the “Food intake relative to vehicle (%) 0-24 hr, 10 nmol/kg” value is listed as 28% and the “Food intake relative to vehicle (%) 24-48 hr, 10 nmol/kg” value stood at 75%.
As to “H-H[Aib]EGTFTSDVSSYLEEQAAREFIAWLVRGRK([AEEA-AEEA-γGlu-C20 diacid])GGGGEASELSTAALGRLSAELHELATLPRTETGSGSP-NH2 [Compound 0502]”, in data set [1], the EC50 turned out to be 9 pM. Besides, the EC50 at human GLP-1 receptor is 8.4 pM. For the same molecule, in data set [2], the “Tmax” value is 4.0 h and the half-life is 3960 min. Besides, the Tmax in data set [2] (Tmax (hr)) worked out at 2 h. For the same molecule, in the data set on Sprague Dawley (SD) rats (Table 6a), the “Food intake relative to vehicle (%) 0-24 hr, 10 nmol/kg” value is given as 61% and the “Food intake relative to vehicle (%) 24-48 hr, 10 nmol/kg” value came out at 72%.
For “H-H[Aib]EGTFTSDVSSYLEEQAAREFIAWLVRGRK([AEEA-AEEA-γGlu-Trx-C20 diacid])GGGGEASELSTAALGRLSAELHELATLPRTETGSGSP-NH2 [Compound 0120]”, in data set [1], the EC50 came out at 10.6 pM and the “Ability to agonise the amylin receptor, in words” value is recorded as “fully potent on both receptors”. On human GLP-1 receptor, the EC50 was found to be 9.1 pM and the “Ability to agonise the GLP-1 receptor, in words” value is “fully potent on both receptors”. In data set [2], the “T½” value was found to be 22 h and the half-life was 1440 min. In the data set on Sprague Dawley (SD) rats (Table 6a), the “Food intake relative to vehicle (%) 0-24 hr, 10 nmol/kg” value is on record as 53% and the “Food intake relative to vehicle (%) 24-48 hr, 10 nmol/kg” value worked out at 55%. In the data set on Sprague Dawley (SD) rats (Table 6b), the “Food intake relative to vehicle (%) 0-24 hr, 10 nmol/kg” value worked out at 53% and the “Food intake relative to vehicle (%) 24-48 hr, 10 nmol/kg” value is 55%. Further, the “Inhibition of food intake, in words” value in the data set on Sprague Dawley (SD) rats (rats, 10 nmol/kg) was “significant inhibition of food intake within the first 48 hours”.
As to “H-H[Aib]EGTFTSDVSSYLEEQAAREFIAWLVRGRK([εLys-AEEA-AEEA-γGlu-C20 diacid])GGGGEASELSTAALGRLSAELHELATLPRTETGSGSP-NH2 [Compound 0552]”, in data set [1], the EC50 worked out at 6.9 pM. Further, the EC50 on human GLP-1 receptor worked out at 4.7 pM. Besides, in data set [2], the “AUC/D” value was determined as 8.58 kg·h/L, the “Cmax/D” value is on record as 0.22 kg/L and the half-life was 3120 min. The Tmax in data set [2] (Tmax (hr)) worked out at 1 h. Besides, in the data set with Sprague Dawley (SD) rats (Table 6a), the “Food intake relative to vehicle (%) 0-24 hr, 10 nmol/kg” value is on record as 56% and the “Food intake relative to vehicle (%) 24-48 hr, 10 nmol/kg” value is on record as 55%.
For the molecule “H-H[Aib]EGTFTSDVSSYLEEQAARK([εLys-AEEA-AEEA-γGlu-Trx-C20 diacid])FIEWLVRGRGEASELSTAALGRLSAELHELATLPRTETGSGSP-NH2 [Compound 0439]”, the EC50 in data set [1] is 10.7 pM. Besides, at human GLP-1 receptor, the half-maximal effective concentration (EC50) stood at 8.3 pM. Also, in data set [2], the “AUC/D” value came to 5.36 kg·h/L, the “Cmax/D” value came to 0.21 kg/L and the half-life is 1440 min. For the same molecule, the Tmax in data set [2] (Tmax (hr)) came out at 2 h. In the data set on Sprague Dawley (SD) rats (Table 6a), the “Food intake relative to vehicle (%) 0-24 hr, 10 nmol/kg” value is listed as 43% and the “Food intake relative to vehicle (%) 24-48 hr, 10 nmol/kg” value worked out at 41%.
With “H-H[Aib]EGTFTSDVSSYLEGQAAKEFIAWLVRGRK([εLys-AEEA-AEEA-γGlu-C18 diacid])GGEASELSTAALGRLSAELHELATLPRTETGSGSP-NH2 [Compound 0045]”, the EC50 in data set [1] came out at 25.9 pM. The EC50 at human GLP-1 receptor came out at 19.4 pM. Moreover, in data set [2], the “AUC/D” value worked out at 10.90 kg·h/L, the “Cmax/D” value was determined as 0.27 kg/L and the half-life is 2460 min. Besides, the Tmax in data set [2] (Tmax (hr)) was 1.3 h. Moreover, in the data set on Sprague Dawley (SD) rats (Table 6a), the “Food intake relative to vehicle (%) 0-24 hr, 10 nmol/kg” value was 46% and the “Food intake relative to vehicle (%) 24-48 hr, 10 nmol/kg” value turned out to be 80%.
In the case of “H-H[Aib]EGTFTSDVSSYLEGQAAREFIAWLVRGRGQEPK([AEEA-AEEA-γGlu-C18 diacid])GQAPEASELSTAALGRLSAELHELATLPRTETGSGSP-NH2 [Compound 0084]”, the EC50 in data set [1] was 14 pM. Also, at human GLP-1 receptor, the EC50 amounted to 2.5 pM. In data set [2], the “AUC/D” value came to 15.16 kg·h/L, the “Cmax/D” value turned out to be 0.36 kg/L and the half-life is 2820 min. The Tmax in data set [2] (Tmax (hr)) came out at 1.5 h. In the data set with Sprague Dawley (SD) rats (Table 6a), the “Food intake relative to vehicle (%) 0-24 hr, 10 nmol/kg” value was 44% and the “Food intake relative to vehicle (%) 24-48 hr, 10 nmol/kg” value stood at 50%.
On to “human amylin (KCNTATCATQRLANFLVHSSNNFGAILSSTNVGSNTY; Islet amyloid polypeptide; UniProt P10997 34-70, looked up) [37-amino acid long polypeptide hormone co-secreted with insulin from the pancreatic beta-cell]”, for which the half-life in data set [3] and in data set [4] was 15 to 20 min each time.

B1: H-Aib-EGTFTSDVSSYLEGQAA-K([2-[2-[2-[[2-[2-[2-[[(4S)-4-Carboxy-4-(17-Carboxyheptadecanoylamino)Butanoyl]Amino]Ethoxy]Ethoxy]Acetyl]Amino]Ethoxy]Ethoxy]Acetyl])-EFIAWLVRGRGGQEPGQEP-K([2-[2-[2-[[2-[2-[2- … (peptide)
peptide: H[Aib]EGTFTSDVSSYLEGQAAK([AEEA-AEEA-γGlu-C18 diacid])EFIAWLVRGRGGQEPGQEPK([AEEA-AEEA-γGlu-C18 diacid])CNTATCATQRLAEFLRHSSNNFGPILPPTNVGSNTP-NH2
modifications: ends and bridges not checked
In the case of B1, the “Ability to agonise the amylin receptor, in words” value in data set [5] was “do not activate the amylin receptor”.
